# In patent US7510703B2, “UV-photoprotecting/sunscreen compositions comprising silane/siloxane derivatives of merocyanine sulfones” (L'Oreal, priority 2004, dated 2009):
# Assay: UV absorption spectrum (λmax, E1%) of the UV filter compounds
# Format: physicochemical
# Conditions: for E1%: at main λmax; for E1% (shoulder): at shoulder; for λmax: main maximum
SMILES,E1% (UV (Ethanol)),E1% (shoulder) (UV (Ethanol)),λmax (UV (Ethanol)) [nm],λmax (shoulder) (UV (Ethanol)) [nm],E1% (UV (CH2Cl2)),E1% (shoulder) (UV (CH2Cl2)),λmax (UV (CH2Cl2)) [nm],λmax (shoulder) (UV (CH2Cl2)) [nm]
COC(=O)/C(=C\C=C\N(C)CCC[Si](C)(O[Si](C)(C)C)O[Si](C)(C)C)S(=O)(=O)c1ccc(C)cc1 [Example 1],1154,773,372,356,–,–,–,–
"C#CCN(C)C=CC=C(C(=O)OCC)S(=O)(=O)c1ccccc1 [ethyl-5-[methyl(prop-2-ynyl)amino]-2-(phenylsulfonyl)penta-2,4-dienoate]",–,–,–,–,1367,1298,366,358
"C=CCN(C)C=CC=C(C(=O)OC)S(=O)(=O)c1ccc(C)cc1 [methyl-5-[allyl(methyl)amino]-2-[(4-methylphenyl)sulfonyl]penta-2,4-dienoate]",–,–,–,–,1346,1031,370,356
